# Earlier results in patent US20080279967A1, “Composition and method for increasing the metabolism of free fatty acids and facilitating a favorable blood lipid” (priority 2007, published 2008).
# Test system: rats
# Conditions: administration to rats
smiles,measurement,value
"C[N+](C)(C)CCCC(=O)[O-] [γ-butyrobetaine, 4-trimethylamniobutyrate]",nitric oxide concentrations in blood,increases
same,vasodilating activities,elevated
